Two substances from patent US20250353873A1, “COMPOUNDS AND METHODS FOR MODULATING APOE EXPRESSION” (Ionis Pharmaceuticals, Inc., priority 2024, published 2025) can be followed below.

Strand notation (5' to 3'): a small letter for the sugar, then the base; units joined by * are phosphorothioate-linked, units joined directly phosphodiester-linked; [ ] holds rarer units or linkages, { } end groups; capitals alone tell only the bases. [ms] = mesyl phosphoramidate linkage; e = 2'-O-(2-methoxyethyl) (MOE); [5mC] = 5-methylcytosine; d = 2'-deoxy (DNA)

Data set [1] concerns human APOE RNA. Description: Dose-dependent inhibition of human APOE RNA in HepG2 cells, electroporation, 24 hours (Example 6). In kind it is cell-based. The method, boiled down:
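HepG2 cells, 50,000 per well, electroporated with various oligonucleotide concentrations. APOE RNA measured with primer probe set RTS3073, normalized to GAPDH (RTS104), expressed as % of untreated control; IC50 then calculated.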

Data set [2] concerns human APOE RNA. Description: Activity in APOE C57BL/6NTac-Apoeem7250 knock-in mice, single ICV bolus, 20 weeks (Example 13). Type of data set: in vivo. As to conditions: single ICV bolus 300 μg, 20 weeks post treatment, normalized to mouse Ppia. The method, boiled down: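 Knock-in mice (n=4) given a single ICV bolus of 300 μg oligonucleotide, PBS as control. After 20 weeks, human APOE RNA in cortex and spinal cord measured by RT-qPCR, normalized to mouse Ppia, expressed as % of PBS-treated animals.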

Data set [3] relates to human APOE RNA. Description: Activity in APOE 1549 knock-in mice, single ICV bolus, 4 weeks (Example 8). Type of data set: in vivo. To be noted: n = 2, single ICV bolus of 300 μg, four weeks post treatment, Table 18. How it is done:
Modified oligonucleotides described above were tested in the 1549 APOE knock-in mouse model described above.
APOE knock-in mice were divided into groups of either 2 or 6 mice each as described in the tables below. Each mouse received a single intracerebroventricular (ICV) bolus of 300 μg of modified oligonucleotide. A group of either 3 or 6 mice received a single ICV bolus with PBS as a negative control.
Four weeks post treatment, mice were sacrificed and RNA was extracted from cortical brain tissue and spinal cord for quantitative real-time RT-PCR analysis of RNA expression of APOE using primer probe set RTS3073 (described herein above). APOE RNA levels were normalized to mouse Ppia. Mouse Ppia was amplified using primer probe set m_cyclo24 (described herein above). Results are presented as percent human APOE RNA relative to the amount of human APOE RNA in PBS treated animals, (% control). Each experiment is identified in separate tables below.

Take “1736520: 6-10-4 MOE gapmer CTTGGTGAATCTTTATTAAA, linkages sossoszzzssssssssss (e[5mC]*eTeT*eG*eGeT*dG[ms]dA[ms]dA[ms]dT*d[5mC]*dT*dT*dT*dA*dT*eT*eA*eA*eA) [compound 1736520]”: half-maximal inhibition in the data set with human APOE RNA [1] (IC50) required 570 nM. Further, the “APOE RNA (% UTC)” value with human APOE RNA [1] (5 nM) amounted to 109 % UTC; with human APOE RNA [1] (13 nM), 87 % UTC; in the data set on human APOE RNA [1] (33 nM), 92 % UTC; with human APOE RNA [1] (82 nM) it was 72 % UTC; in the data set with human APOE RNA [1] (205 nM), 62 % UTC; in the data set on human APOE RNA [1] (512 nM) it was 34 % UTC. The “APOE RNA (% UTC)” value in the data set with human APOE RNA [1] (1,280 nM) turned out to be 28 % UTC; in the data set with human APOE RNA [1] (3,200 nM), 11 % UTC; with human APOE RNA [1] (8,000 nM), 11 % UTC; with human APOE RNA [1] (20,000 nM) it was 83 % UTC. Besides, the entries for the “APOE RNA (% control) Cortex” value in the data set on human APOE RNA [2] and in the data set with human APOE RNA [3] were 65 % control and 41 % control, respectively. The “APOE RNA (% control) Spinal Cord” value is given as 62 % control with human APOE RNA [2] and 32 % control in the data set on human APOE RNA [3].

For the substance “1736522: 6-10-4 MOE gapmer CTTGGTGAATCTTTATTAAA, linkages sooosszzssssssssoss (e[5mC]*eTeTeGeG*eT*dG[ms]dA[ms]dA*dT*d[5mC]*dT*dT*dT*dA*dT*eTeA*eA*eA) [compound 1736522]”, in the data set on human APOE RNA [1], half-maximal inhibition (IC50) was put at 1380 nM. Besides, the “APOE RNA (% UTC)” value in the data set on human APOE RNA [1] (5 nM) was found to be 110 % UTC; with human APOE RNA [1] (13 nM), 88 % UTC; with human APOE RNA [1] (33 nM), 90 % UTC; in the data set with human APOE RNA [1] (82 nM), 82 % UTC; in the data set on human APOE RNA [1] (205 nM) it was 67 % UTC; with human APOE RNA [1] (512 nM), 59 % UTC. For the same substance, the “APOE RNA (% UTC)” value with human APOE RNA [1] (1,280 nM) is recorded as 45 % UTC; in the data set with human APOE RNA [1] (3,200 nM), 41 % UTC; with human APOE RNA [1] (8,000 nM) it was 18 % UTC; with human APOE RNA [1] (20,000 nM), 43 % UTC. Moreover, the “APOE RNA (% control) Cortex” value in the data set on human APOE RNA [2] was 64 % control; in the data set with human APOE RNA [3], 41 % control. Further, the entries for the “APOE RNA (% control) Spinal Cord” value with human APOE RNA [2] and with human APOE RNA [3] were 56 % control and 39 % control, respectively.
